This is an account of results in patent publication US8999957B2, “Heterocyclic compounds as ERK inhibitors” (Merck Sharp & Dohme Corp., priority 2010, dated 2015).

As a reminder, the pIC50 is the IC50 on a negative log10 scale, so that one unit is a factor of ten.

pIC50: −log10 of the molar value. Values joined by “and” are separate entries in the source; they are usually repeats but may differ in a detail not shown here. Equal entries are not always repeated.

In the first experiment the target is fully phosphorylated, mouse aERK2 enzyme (Mus musculus (Mouse), UniProt P63085). The experiment is described as follows: Active ERK2 (aERK) IMAP-FP assay, condition 2. Format: biochemical. The note with it: aERK assay condition 2, 30 uM ATP; read-out: aERK IC50. The procedure: Active ERK2 (aERK) Assay: (Unless Indicated Otherwise, the Data Provided for aERK was obtained using Condition 1)
Chain of fully phosphorylated, mouse aERK2 enzyme (P63085 whole entry): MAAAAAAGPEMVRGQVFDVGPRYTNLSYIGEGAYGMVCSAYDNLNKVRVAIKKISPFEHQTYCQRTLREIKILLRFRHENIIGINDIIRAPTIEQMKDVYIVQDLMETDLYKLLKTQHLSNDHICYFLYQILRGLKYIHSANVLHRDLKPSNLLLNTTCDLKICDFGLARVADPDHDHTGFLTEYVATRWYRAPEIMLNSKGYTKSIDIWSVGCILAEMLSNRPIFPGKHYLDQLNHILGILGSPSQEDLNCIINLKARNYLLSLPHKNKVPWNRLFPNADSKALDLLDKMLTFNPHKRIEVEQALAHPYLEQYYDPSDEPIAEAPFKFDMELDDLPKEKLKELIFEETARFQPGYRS
Activated ERK2 activity was determined in an IMAP-FP assay (Molecular Devices). […] Phosphorylation reactions were allowed to proceed for 40-45 minutes and were immediately quenched by the addition of 60 μL IMAP detection beads (1:1000 dilutions) in IMAP binding buffer. Plates were read on EnVision reader after 30 minutes binding equilibration.
On to `COc1cccc(F)c1CN1C[C@H](NC(=O)c2ccc3[nH]nc(-c4ccnc(C)c4)c3c2)CC[C@H]1C(=O)NC1(C)CC1` [N-{(3R,6S)-1-(2-fluoro-6-methoxybenzyl)-6-[(1-methylcyclopropyl)carbamoyl]piperidin-3-yl}-3-(2-methylpyridin-4-yl)-1H-indazole-5-carboxamide], for which the pIC50 was 8.33.
Regarding `COc1cccc(F)c1CN1C[C@H](NC(=O)c2ccc3[nH]nc(-c4ccnc(C)c4)c3c2)CC[C@H]1C(=O)N1CC(C)(O)C1` [N-{(3R,6S)-1-(2-fluoro-6-methoxybenzyl)-6-[(3-hydroxy-3-methylazetidin-1-yl)carbonyl]piperidin-3-yl}-3-(2-methylpyridin-4-yl)-1H-indazole-5-carboxamide], the pIC50 was 8.96.
With `COc1cccc(F)c1CN1CCC[C@@H](NC(=O)c2ccc3[nH]nc(C4=CCS(=O)(=O)CC4)c3c2)C1` [3-(1,1-dioxido-3,6-dihydro-2H-thiopyran-4-yl)-N-[(3R)-1-(2-fluoro-6-methoxy-benzyl)piperidin-3-yl]-1H-indazole-5-carboxamide], the pIC50 is 8.08.
In the case of `CN(C)C(=O)C(c1ccccc1F)N1CCC[C@@H](NC(=O)c2ccc3[nH]nc(-c4ccncc4)c3c2)C1` (single isomer, unassigned) [N-((R)-1-((R or S)-2-(dimethylamino)-1-(2-fluorophenyl)-2-oxoethyl)piperidin-3-yl)-3-(pyridin-4-yl)-1H-indazole-5-carboxamide], the pIC50 was 7.58.
Still for that read-out and setting: the figure for `CN(C)C(=O)C(c1c(F)cccc1F)N1CCC[C@@H](NC(=O)c2ccc3[nH]nc(-c4ccncc4)c3c2)C1` (single isomer, unassigned) [drawing 507, N-((R)-1-((R or S)-1-(2,6-difluorophenyl)-2-(dimethyl-amino)-2-oxoethyl)piperidin-3-yl)-3-(pyridin-4-yl)-1H-indazole-5-carboxamide] is 6.38; for `CNC(=O)C(c1c(F)cccc1F)N1CCC[C@@H](NC(=O)c2ccc3[nH]nc(-c4ccncc4)c3c2)C1` (single isomer, unassigned) [drawing 505, N-((R)-1-((R or S)-1-(2,6-difluorophenyl)-2-(methylamino)-2-oxoethyl)-piperidin-3-yl)-3-(pyridin-4-yl)-1H-indazole-5-carboxamide] it is 6.35.
Turning to `COC(=O)[C@@H](c1c(F)cccc1F)N1CCC[C@@H](NC(=O)c2ccc3[nH]nc(-c4ccncc4)c3c2)C1` [(R)-methyl 2-(2,6-difluorophenyl)-2-((R)-3-(3-(pyridin-4-yl)-1H-indazole-5-carboxamido)piperidin-1-yl)acetate], the negative-log IC50 (pIC50) was 5.66.
Regarding `NC(=O)C(c1c(F)cccc1F)N1CCC[C@@H](NC(=O)c2ccc3[nH]nc(-c4ccncc4)c3c2)C1` (single isomer, unassigned) [drawing 503, N-((R)-1-((R or S)-2-amino-1-(2,6-difluorophenyl)-2-oxoethyl)piperidin-3-yl)-3-(pyridin-4-yl)-1H-indazole-5-carboxamide], the pIC50 was 6.65.

The experiment is the same for the next values; noted with them: active ERK2; read-out: aErk2 Ic50.
With `COc1cccc(F)c1CN1C[C@@H](NC(=O)c2ccc3[nH]nc(-c4ccnc(C)c4)c3c2)CC[C@@H]1C(=O)N1CC(O[Si](C)(C)C(C)(C)C)CO1` (stereo in doubt) [N-[(3S,6R)-6-[(4-{[tert-butyl(dimethyl)silyl]oxy}isoxazolidin-2-yl)carbonyl]-1-(2-fluoro-6-methoxybenzyl)-piperidin-3-yl]-3-(2-methylpyridin-4-yl)-1H-indazole-5-carboxamide], the pIC50 is 7.14 and 6.84.
As to `Cc1cc(-c2n[nH]c3ccc(C(=O)N[C@@H]4CC[C@@H](C(=O)N5CC(F)(F)C5)N(Cc5ccccc5F)C4)cc23)ccn1` [N-[(3R,6S)-6-[(3,3-difluoroazetidin-1-yl)carbonyl]-1-(2-fluorobenzyl)piperidin-3-yl]-3-(2-methylpyridin-4-yl)-1H-indazole-5-carboxamide], the pIC50 is 7.25.
The same measure, in the same setting: the figure for `COc1cccc(F)c1CN1C[C@H](NC(=O)c2ccc3[nH]nc(-c4ccnc(C)c4)c3c2)CC[C@H]1C(=O)NCCOCc1ccccc1` [N-[(3R,6S)-6-{[2-(benzyloxy)ethyl]-carbamoyl}-1-(2-fluoro-6-methoxybenzyl)-piperidin-3-yl]-3-(2-methylpyridin-4-yl)-1H-indazole-5-carboxamide] is 6.92; for `COc1cccc(F)c1CN1C[C@H](NC(=O)c2ccc3[nH]nc(-c4ccncc4)c3c2)CC[C@H]1C(=O)N1CCCCC1` [N-[(3R,6S)-1-(2-fluoro-6-methoxybenzyl)-6-(piperidin-1-ylcarbonyl)piperidin-3-yl]-3-pyridin-4-yl-1H-indazole-5-carboxamide] it is 7.22.
For the compound `COc1cccc(F)c1CN1C[C@H](NC(=O)c2ccc3[nH]nc(-c4ccnc(C)c4)c3c2)CC[C@H]1C(=O)N1CCN(C(C)=O)CC1` [N-[(3R,6S)-6-[(4-acetylpiperazin-1-yl)carbonyl]-1-(2-fluoro-6-methoxybenzyl)-piperidin-3-yl]-3-(2-methylpyridin-4-yl)-1H-indazole-5-carboxamide], the pIC50 is 7.72.
Still for that read-out and setting: the figure for `COCCNC(=O)[C@@H]1CC[C@@H](NC(=O)c2ccc3[nH]nc(-c4ccnc(C)c4)c3c2)CN1Cc1c(F)cccc1OC` [N-{(3R,6S)-1-(2-fluoro-6-methoxybenzyl)-6-[(2-methoxyethyl)carbamoyl]piperidin-3-yl}-3-(2-methylpyridin-4-yl)-1H-indazole-5-carboxamide] is 7.25.
Turning to `COc1cccc(F)c1CN1C[C@H](NC(=O)c2ccc3[nH]nc(-c4ccnc(C)c4)c3c2)CC[C@H]1C(=O)N1CCN(C(=O)OC2CCOCC2)CC1` [tetrahydro-2H-pyran-4-yl 4-{[(2S,5R)-1-(2-fluoro-6-methoxybenzyl)-5-({[3-(2-methylpyridin-4-yl)-1H-indazol-5-yl]carbonyl}amino)piperidin-2-yl]carbonyl}piperazine-1-carboxylate], the pIC50 was 7.73.
For `COc1cccc(F)c1CN1C[C@H](NC(=O)c2ccc3[nH]nc(-c4ccc5nn(C)cc5c4)c3c2)CC[C@H]1C(=O)N1CC(F)(F)C1`, the negative logarithm of the IC50 (pIC50) was 7.64.
Take `CCNC(=O)N1CCN(C(=O)[C@@H]2CC[C@@H](NC(=O)c3ccc4[nH]nc(-c5ccnc(C)c5)c4c3)CN2Cc2c(F)cccc2OC)CC1` [N-[(3R,6S)-6-{[4-(ethylcarbamoyl)piperazin-1-yl]carbonyl}-1-(2-fluoro-6-methoxy-benzyl)piperidin-3-yl]-3-(2-methylpyridin-4-yl)-1H-indazole-5-carboxamide]: the pIC50 is 7.79.
On the same count and under the same terms, the result for `Cc1cc(-c2n[nH]c3ccc(C(=O)N[C@@H]4CC[C@@H](C(=O)N5CC(F)(F)C5)N(Cc5cccs5)C4)cc23)ccn1` [N-[(3R,6S)-6-[(3,3-difluoroazetidin-1-yl)carbonyl]-1-(thiophen-2-ylmethyl)-piperidin-3-yl]-3-(2-methylpyridin-4-yl)-1H-indazole-5-carboxamide] reads 7.59.
On the same count and under the same terms, the result for `COc1cccc(F)c1CN1C[C@H](NC(=O)c2ccc3[nH]nc(-c4ccnc(C)c4)c3c2)CC[C@H]1C(=O)NN(C)C` [N-[(3R,6S)-6-[(2,2-dimethylhydrazino)-carbonyl]-1-(2-fluoro-6-methoxybenzyl)-piperidin-3-yl]-3-(2-methylpyridin-4-yl)-1H-indazole-5-carboxamide] reads 7.91.
Same read-out and setting: the figure for `COC(=O)N1CCN(C(=O)[C@@H]2CC[C@@H](NC(=O)c3ccc4[nH]nc(-c5ccnc(C)c5)c4c3)CN2Cc2c(F)cccc2OC)CC1` [methyl 4-{[(2S,5R)-1-(2-fluoro-6-methoxy-benzyl)-5-({[3-(2-methylpyridin-4-yl)-1H-indazol-5-yl]carbonyl}amino)piperidin-2-yl]carbonyl}piperazine-1-carboxylate] is 7.75; for `CCCCN(CCCC)C(=O)[C@@H]1CC[C@@H](NC(=O)c2ccc3[nH]nc(-c4ccnc(C)c4)c3c2)CN1Cc1c(F)cccc1OC` [N-[(3R,6S)-6-(dibutylcarbamoyl)-1-(2-fluoro-6-methoxybenzyl)piperidin-3-yl]-3-(2-methylpyridin-4-yl)-1H-indazole-5-carboxamide] it is 6.30.
For the compound `CNC(=O)[C@@H]1CC[C@@H](NC(=O)c2ccc3[nH]nc(-c4ccncc4)c3c2)CN1Cc1c(F)cccc1OC` [N-[(3R,6S)-1-(2-fluoro-6-methoxybenzyl)-6-(methylcarbamoyl)piperidin-3-yl]-3-pyridin-4-yl-1H-indazole-5-carboxamide], the negative logarithm of the IC50 (pIC50) is 8.49.
Take `COc1cccc(F)c1CN1C[C@H](NC(=O)c2ccc3[nH]nc(-c4ccnc(C)c4)c3c2)CC[C@H]1C(=O)N(C)C` [N-[(3R,6S)-6-(dimethylcarbamoyl)-1-(2-fluoro-6-methoxybenzyl)piperidin-3-yl]-3-(2-methylpyridin-4-yl)-1H-indazole-5-carboxamide]: the pIC50 is 7.42.
Turning to `Cc1cc(-c2n[nH]c3ccc(C(=O)N[C@@H]4CC[C@@H](C(=O)N(C)C)N(Cc5cccs5)C4)cc23)ccn1` [N-[(3R,6S)-6-(dimethylcarbamoyl)-1-(thiophen-2-ylmethyl)piperidin-3-yl]-3-(2-methylpyridin-4-yl)-1H-indazole-5-carboxamide], the pIC50 is 7.84.
`COc1cccc(F)c1CN1C[C@H](NC(=O)c2ccc3[nH]nc(-c4ccnc(C)c4)c3c2)CC[C@H]1C(=O)N1CCN(C(=O)OC(C)C)CC1` [1-methylethyl 4-{[(2S,5R)-1-(2-fluoro-6-methoxybenzyl)-5-({[3-(2-methylpyridin-4-yl)-1H-indazol-5-yl]carbonyl}amino)piperidin-2-yl]carbonyl}piperazine-1-carboxylate]: the pIC50 was 7.72.
For `COc1cccc(F)c1CN1C[C@H](NC(=O)c2ccc3[nH]nc(-c4ccnc(C)c4)c3c2)CC[C@H]1C(=O)N1CCCCO1` [N-[(3R,6S)-1-(2-fluoro-6-methoxybenzyl)-6-(1,2-oxazinan-2-ylcarbonyl)piperidin-3-yl]-3-(2-methylpyridin-4-yl)-1H-indazole-5-carboxamide], the pIC50 is 8.02.
